Assay results as given in patent publication US20080153896A1, “Polymorphic Forms of an HMG-CoA Reductase Inhibitor and Uses Thereof” (priority 2006, published 2008).

Assay: Stability (integrity) testing of amorphous and polymorphic form under storage conditions, RP-HPLC
Assay type: physicochemical
Design: key to Impurity RRT 0.738 / Impurity RRT 0.949 / Impurity RRT 1.050 / Impurity RRT 1.550 / Impurity RRT 0.136 / Impurity RRT 0.720 / Impurity RRT 0.706 / Impurity RRT 1.18 / Impurity RRT 1.826: % of total UV absorption (HPLC peak area); Impurity RRT 1.104 / Impurity RRT 1.698: unit not given beside the values
Settings: Batch 3 PP00205
Description: The integrity of the different forms of the (3R, 5R)-7-[2-(4-fluorophenyl)-5-isopropyl-3-phenyl-4-[(4-hydroxymethylphenylamino)carbonyl]-pyrrol-1-yl]-3,5-dihydroxy-heptanoic acid, hemi calcium salt, was tested under different atmospheric conditions to determine the stability of the amorphous and polymorphic form of the drug in various storage environments. Reversed Phase-HPLC (RP-HPLC) was used to separate (3R, 5R)-7-[2-(4-fluorophenyl)-5-isopropyl-3-phenyl-4-[(4-hydroxymethylphenylamino)carbonyl]-pyrrol-1-yl]-3,5-dihydroxy-heptanoic acid, hemi calcium salt, from smaller molecules representing breakdown products as well as oxidized drug. The relative amount of the drug was reported as a percent of total absorption by UV. The total peak area of all UV absorption impurities was used to define total impurity of the drug. Impurities are defined by their relative retention time (RRT) compared to native drug. Samples were injected onto a C18 column using standard temperature, gradient and run-time conditions.
The results of this integrity testing for the amorphous form of (3R, 5R)-7-[2-(4-fluorophenyl)-5-isopropyl-3-phenyl-4-[(4-hydroxymethylphenylamino)carbonyl]-pyrrol-1-yl]-3,5-dihydroxy-heptanoic acid, hemi calcium salt, is shown in Table 5.
Three separate batches of polymorphic Form I of (3R, 5R)-7-[2-(4-fluorophenyl)-5-isopropyl-3-phenyl-4-[(4-hydroxymethylphenylamino)carbonyl]-pyrrol-1-yl]-3,5-dihydroxy-heptanoic acid, hemi calcium salt, were prepared and tested under the same atmospheric conditions described for the amorphous form.

- Assay (5° C. 2M): 98.21 % W/W
- Description (5° C. 2M): White
- Highest Impurity (5° C. 2M): 0.402
- Impurity RRT 0.935 (5° C. 2M): 0.402
- Impurity RRT 1.045 (5° C. 2M): 0.340
- Impurity RRT 1.095 (5° C. 2M): 0.155
- Impurity RRT 1.44 (5° C. 2M): 0.203
- Impurity RRT 1.590 (5° C. 2M): 0.096
- Impurity RRT 1.640 (5° C. 2M): 0.064
- Impurity RRT 1.698 (5° C. 2M): 0.067
- Total Impurity (5° C. 2M): 1.33
- Water (5° C. 2M): 4.02 % W/W
- Assay (5° C. 3M): 98.20 % W/W
- Description (5° C. 3M): White
- Highest Impurity (5° C. 3M): 0.436
- Impurity RRT 0.935 (5° C. 3M): 0.416
- Impurity RRT 1.045 (5° C. 3M): 0.436
- Impurity RRT 1.095 (5° C. 3M): 0.155
- Impurity RRT 1.44 (5° C. 3M): 0.203
- Impurity RRT 1.590 (5° C. 3M): 0.093
- Impurity RRT 1.640 (5° C. 3M): 0.061
- Impurity RRT 1.698 (5° C. 3M): 0.065
- Total Impurity (5° C. 3M): 1.43
- Water (5° C. 3M): 4.69 % W/W
- Assay (5° C. 4M): 98.22 % W/W
- Description (5° C. 4M): White
- Highest Impurity (5° C. 4M): 0.381
- Impurity RRT 0.138 (5° C. 4M): 0.219
- Impurity RRT 0.935 (5° C. 4M): 0.381
- Impurity RRT 1.045 (5° C. 4M): 0.324
- Impurity RRT 1.095 (5° C. 4M): 0.128
- Impurity RRT 1.449 (5° C. 4M): 0.220
- Impurity RRT 1.596 (5° C. 4M): 0.077
- Impurity RRT 1.640 (5° C. 4M): 0.081
- Impurity RRT 1.698 (5° C. 4M): 0.057
- Total Impurity (5° C. 4M): 1.487
- Water (5° C. 4M): 5.08 % W/W
- Assay (5° C. 5M): 98.53 % W/W
- Description (5° C. 5M): White
- Highest Impurity (5° C. 5M): 0.410
- Impurity RRT 0.138 (5° C. 5M): 0.231
- Impurity RRT 0.935 (5° C. 5M): 0.410
- Impurity RRT 1.045 (5° C. 5M): 0.321
- Impurity RRT 1.095 (5° C. 5M): 0.140
- Impurity RRT 1.449 (5° C. 5M): 0.198
- Impurity RRT 1.596 (5° C. 5M): 0.075
- Impurity RRT 1.640 (5° C. 5M): 0.049
- Impurity RRT 1.698 (5° C. 5M): 0.058
- Total Impurity (5° C. 5M): 1.482
- Water (5° C. 5M): 4.79 % W/W
- Assay (5° C. 6M): 98.15 % W/W
- Description (5° C. 6M): White
- Highest Impurity (5° C. 6M): 0.368
- Impurity RRT 0.138 (5° C. 6M): 0.256
- Impurity RRT 0.935 (5° C. 6M): 0.368
- Impurity RRT 1.045 (5° C. 6M): 0.315
- Impurity RRT 1.095 (5° C. 6M): 0.165
- Impurity RRT 1.449 (5° C. 6M): 0.211
- Impurity RRT 1.596 (5° C. 6M): 0.081
- Impurity RRT 1.640 (5° C. 6M): 0.049
- Impurity RRT 1.698 (5° C. 6M): 0.050
- Total Impurity (5° C. 6M): 1.495
- Water (5° C. 6M): 4.78 % W/W
- Assay (5° C. 9M): 98.14 % W/W
- Description (5° C. 9M): White
- Highest Impurity (5° C. 9M): 0.390
- Impurity RRT 0.138 (5° C. 9M): 0.222
- Impurity RRT 0.935 (5° C. 9M): 0.390
- Impurity RRT 1.045 (5° C. 9M): 0.372
- Impurity RRT 1.095 (5° C. 9M): 0.142
- Impurity RRT 1.449 (5° C. 9M): 0.174
- Impurity RRT 1.596 (5° C. 9M): 0.088
- Impurity RRT 1.640 (5° C. 9M): 0.049
- Impurity RRT 1.698 (5° C. 9M): 0.053
- Total Impurity (5° C. 9M): 1.490
- Water (5° C. 9M): 5.39 % W/W
- Assay (5° C. 12M): 98.31 % W/W
- Description (5° C. 12M): White
- Highest Impurity (5° C. 12M): 0.438
- Impurity RRT 0.935 (5° C. 12M): 0.438
- Impurity RRT 1.045 (5° C. 12M): 0.383
- Impurity RRT 1.095 (5° C. 12M): 0.177
- Impurity RRT 1.449 (5° C. 12M): 0.217
- Impurity RRT 1.596 (5° C. 12M): 0.090
- Impurity RRT 1.640 (5° C. 12M): 0.066
- Impurity RRT 1.698 (5° C. 12M): 0.066
- Total Impurity (5° C. 12M): 1.437
- Water (5° C. 12M): 5.97 % W/W
- Assay (5° C./1M): 98.26 % W/W
- Description (5° C./1M): White
- Highest Impurity (5° C./1M): 0.421
- Impurity RRT 0.706 (5° C./1M): 0.042
- Impurity RRT 0.935 (5° C./1M): 0.421
- Impurity RRT 1.045 (5° C./1M): 0.352
- Impurity RRT 1.095 (5° C./1M): 0.165
- Impurity RRT 1.44 (5° C./1M): 0.21
- Impurity RRT 1.590 (5° C./1M): 0.100
- Impurity RRT 1.640 (5° C./1M): 0.074
- Impurity RRT 1.698 (5° C./1M): 0.071
- Total Impurity (5° C./1M): 1.455
- Water (5° C./1M): 4.77 % W/W
- Assay (25° C./60% RH 3M): 98.11 % W/W
- Description (25° C./60% RH 3M): White
- Highest Impurity (25° C./60% RH 3M): 0.437
- Impurity RRT 0.935 (25° C./60% RH 3M): 0.437
- Impurity RRT 1.045 (25° C./60% RH 3M): 0.372
- Impurity RRT 1.095 (25° C./60% RH 3M): 0.164
- Impurity RRT 1.44 (25° C./60% RH 3M): 0.225
- Impurity RRT 1.590 (25° C./60% RH 3M): 0.094
- Impurity RRT 1.640 (25° C./60% RH 3M): 0.062
- Impurity RRT 1.698 (25° C./60% RH 3M): 0.065
- Total Impurity (25° C./60% RH 3M): 1.42
- Water (25° C./60% RH 3M): 4.65 % W/W
- Assay (25° C./60% RH 6M): 98.10 % W/W
- Description (25° C./60% RH 6M): White
- Highest Impurity (25° C./60% RH 6M): 0.476
- Impurity RRT 0.935 (25° C./60% RH 6M): 0.476
- Impurity RRT 1.045 (25° C./60% RH 6M): 0.324
- Impurity RRT 1.095 (25° C./60% RH 6M): 0.191
- Impurity RRT 1.449 (25° C./60% RH 6M): 0.196
- Impurity RRT 1.596 (25° C./60% RH 6M): 0.071
- Impurity RRT 1.640 (25° C./60% RH 6M): 0.061
- Impurity RRT 1.698 (25° C./60% RH 6M): 0.061
- Total Impurity (25° C./60% RH 6M): 1.380
- Water (25° C./60% RH 6M): 4.96 % W/W
- Assay (25° C./60% RH 9M): 97.95 % W/W
- Description (25° C./60% RH 9M): White
- Highest Impurity (25° C./60% RH 9M): 0.408
- Impurity RRT 0.935 (25° C./60% RH 9M): 0.408
- Impurity RRT 1.045 (25° C./60% RH 9M): 0.361
- Impurity RRT 1.095 (25° C./60% RH 9M): 0.187
- Impurity RRT 1.449 (25° C./60% RH 9M): 0.225
- Impurity RRT 1.596 (25° C./60% RH 9M): 0.096
- Impurity RRT 1.640 (25° C./60% RH 9M): 0.062
- Impurity RRT 1.698 (25° C./60% RH 9M): 0.055
- Impurity RRT 1.826 (25° C./60% RH 9M): 0.053
- Total Impurity (25° C./60% RH 9M): 1.477
- Water (25° C./60% RH 9M): 5.36 % W/W
- Assay (25° C./60% RH 12M): 98.10 % W/W
- Description (25° C./60% RH 12M): White
- Highest Impurity (25° C./60% RH 12M): 0.399
- Impurity RRT 0.138 (25° C./60% RH 12M): 0.204
- Impurity RRT 0.935 (25° C./60% RH 12M): 0.399
Compound: CC(C)c1c(C(=O)Nc2ccc(CO)cc2)c(-c2ccccc2)c(-c2ccc(F)cc2)n1CC[C@@H](O)C[C@@H](O)CC(=O)[O-].CC(C)c1c(C(=O)Nc2ccc(CO)cc2)c(-c2ccccc2)c(-c2ccc(F)cc2)n1CC[C@@H](O)C[C@@H](O)CC(=O)[O-].[Ca+2] [Form I, (3R,5)-7-[2-(4-fluorophenyl)-5-isopropyl-3-phenyl-4-[(4-hydroxymethylphenylamino)carbonyl]-pyrrol-1-yl]-3,5-dihydroxy-heptanoic acid, hemi calcium salt]
